These results are taken from ChEMBL document CHEMBL6114980, “Single or double lipid-modified ultra-short antimicrobial peptides for treating infections caused by resistant bacteria” (Eur J Med Chem, 2025).

Converted amounts (≈) assume the structure as drawn.

The subject of data set [1] is Pseudomonas aeruginosa. Put plainly: Antibacterial activity against Pseudomonas aeruginosa 124 assessed as reduction in bacterial growth incubated for 18 to 24 hrs by broth microdilution method. Particulars: time 18-24 hrs. Type of data set: functional. Background: Broth dilution looks for growth in wells or tubes with falling amounts of substance.
Data set [2] relates to Pseudomonas aeruginosa. Put plainly: Antibacterial activity against Pseudomonas aeruginosa ATCC 27853 assessed as reduction in bacterial growth incubated for 18 to 24 hrs by broth microdilution method. Type of data set: functional. Particulars: time 18-24 hrs.
The subject of a further data set is Klebsiella pneumoniae. The data set can be described thus: Antibacterial activity against Klebsiella pneumoniae ATCC 700603 assessed as reduction in bacterial growth incubated for 18 to 24 hrs by broth microdilution method. Particulars: time 18-24 hrs. The format is functional.
Data set [3] concerns Acinetobacter baumannii. The data set can be described thus: Antibacterial activity against Acinetobacter baumannii ATCC 19606 assessed as reduction in bacterial growth incubated for 18 to 24 hrs by broth microdilution method. Type of data set: functional. Particulars: time 18-24 hrs.
In data set [4] the test system is Staphylococcus aureus. The data set can be described thus: Drug resistance, ratio of MIC for Staphylococcus aureus 25923 after 15 passages exposure to MIC for Staphylococcus aureus 25923 during first exposure. Type of data set: functional.
The subject of data set [5] is Staphylococcus aureus. Put plainly: Antibacterial activity against Staphylococcus aureus 794 assessed as reduction in bacterial growth incubated for 18 to 24 hrs by broth microdilution method. Type of data set: functional. The settings on record: time 18-24 hrs.
The test system of data set [6] is Acinetobacter baumannii. The data set can be described thus: Antibacterial activity against Acinetobacter baumannii 92359 assessed as reduction in bacterial growth incubated for 18 to 24 hrs by broth microdilution method. Particulars: time 18-24 hrs. Type of data set: functional.
The test system of data set [7] is Escherichia coli. The data set can be described thus: Antibacterial activity against Escherichia coli 850 assessed as reduction in bacterial growth incubated for 18 to 24 hrs by broth microdilution method. The format is functional. The settings on record: time 18-24 hrs.
For data set [8], the system named is Pseudomonas aeruginosa. Put plainly: Antibacterial activity against Pseudomonas aeruginosa 6434N assessed as reduction in bacterial growth incubated for 18 to 24 hrs by broth microdilution method. The format is functional. Particulars: time 18-24 hrs.
Data set [9] has as its system Escherichia coli. Put plainly: Antibacterial activity against Escherichia coli 780 assessed as reduction in bacterial growth incubated for 18 to 24 hrs by broth microdilution method. Type of data set: functional. Particulars: time 18-24 hrs.
Data set [10] deals with Acinetobacter baumannii. The data set can be described thus: Antibacterial activity against Acinetobacter baumannii 5444 assessed as reduction in bacterial growth incubated for 18 to 24 hrs by broth microdilution method. The format is functional. Particulars: time 18-24 hrs.
For data set [11], the system named is Staphylococcus aureus. The data set can be described thus: Antibacterial activity against Staphylococcus aureus ATCC 25923 assessed as reduction in bacterial growth incubated for 18 to 24 hrs by broth microdilution method. Particulars: time 18-24 hrs. The format is functional.
The test system of data set [12] is Escherichia coli. The data set can be described thus: Drug resistance, ratio of MIC for Escherichia coli 25922 after 15 passages exposure to MIC for Escherichia coli 25922 during first exposure. Type of data set: functional.
For the next data set, the system named is Enterococcus faecalis. Put plainly: Antibacterial activity against Enterococcus faecalis ATCC 29212 assessed as reduction in bacterial growth incubated for 18 to 24 hrs by broth microdilution method. The settings on record: time 18-24 hrs. Type of data set: functional.
In data set [13] the test system is Escherichia coli. The data set can be described thus: Drug resistance, ratio of MIC for Escherichia coli 25922 after 7 passages exposure to MIC for Escherichia coli 25922 during first exposure. Type of data set: functional.
Data set [14] relates to Staphylococcus aureus. The data set can be described thus: Drug resistance, ratio of MIC for Staphylococcus aureus 25923 after 4 passages exposure to MIC for Staphylococcus aureus 25923 during first exposure. Type of data set: functional.
Data set [15] concerns Escherichia coli. The data set can be described thus: Antibacterial activity against Escherichia coli ATCC 25922 assessed as reduction in bacterial growth incubated for 18 to 24 hrs by broth microdilution method. Particulars: time 18-24 hrs. The format is functional.
The subject of data set [16] is Staphylococcus aureus. The data set can be described thus: Antibacterial activity against methicillin-resistant Staphylococcus aureus ATCC 33591 assessed as reduction in bacterial growth incubated for 18 to 24 hrs by broth microdilution method. The format is functional. Particulars: time 18-24 hrs.
Data set [17] concerns Staphylococcus aureus. The data set can be described thus: Antibacterial activity against Staphylococcus aureus 125 assessed as reduction in bacterial growth incubated for 18 to 24 hrs by broth microdilution method. The format is functional. Particulars: time 18-24 hrs.
For data set [18], the system named is Staphylococcus aureus. Put plainly: Antibacterial activity against methicillin-resistant Staphylococcus aureus 75 assessed as reduction in bacterial growth incubated for 18 to 24 hrs by broth microdilution method. The format is functional. The settings on record: time 18-24 hrs.
The test system of data set [19] is Staphylococcus epidermidis. Put plainly: Antibacterial activity against Staphylococcus epidermidis ATCC 12228 assessed as reduction in bacterial growth incubated for 18 to 24 hrs by broth microdilution method. The format is functional. Particulars: time 18-24 hrs.
The test system of a further data set is Bacillus subtilis. The data set can be described thus: Antibacterial activity against Bacillus subtilis ATCC 23857 assessed as reduction in bacterial growth incubated for 18 to 24 hrs by broth microdilution method. Type of data set: functional. The settings on record: time 18-24 hrs.
Data set [20] has as its system Staphylococcus aureus. Put plainly: Antibacterial activity against Staphylococcus aureus 113 assessed as reduction in bacterial growth incubated for 18 to 24 hrs by broth microdilution method. The format is functional. Particulars: time 18-24 hrs.
Data set [21] is described as follows: Acute toxicity in male BALB/c mouse assessed infiltration of inflammatory cells in kidney at 20 to 30 mg/kg, ip measured after 7 days by H and E staining based analysis. The format is organism-based. Particulars: in vivo, 168 h, dose 20-30 mg/kg, time 7 day.
The nature of data set [22]: Acute toxicity in male BALB/c mouse assessed infiltration of inflammatory cells in spleen at 20 to 30 mg/kg, ip measured after 7 days by H and E staining based analysis. Type of data set: organism-based. Particulars: in vivo, 168 h, dose 20-30 mg/kg, time 7 day.
Data set [23] can be described thus: Acute toxicity in male BALB/c mouse assessed appearance of lung congestion at 20 to 30 mg/kg, ip measured after 7 days by H and E staining based analysis. Particulars: in vivo, 168 h, dose 20-30 mg/kg, time 7 day. The format is organism-based.
Data set [24] is described as follows: Stability in mouse serum assessed as half life measured after 1 hr by HPLC analysis. The format is ADME, cell-free.
Data set [25] can be described thus: Acute toxicity in male BALB/c mouse assessed effect on liver at 20 to 30 mg/kg, ip measured after 7 days by H and E staining based analysis. Type of data set: organism-based. Particulars: in vivo, 168 h, dose 20-30 mg/kg, time 7 day.
Data set [26] can be described thus: Stability in mouse serum assessed as retention time measured after 1 hr by RP-HPLC analysis. Type of data set: ADME, cell-free.
A short description of data set [27]: Acute toxicity in male BALB/c mouse assessed effect on lung at 20 to 30 mg/kg, ip measured after 7 days by H and E staining based analysis. The settings on record: in vivo, 168 h, dose 20-30 mg/kg, time 7 day. Type of data set: organism-based.
The nature of data set [28]: Acute toxicity in male BALB/c mouse assessed infiltration of inflammatory cells at 20 to 30 mg/kg, ip measured after 7 days by H and E staining based analysis. Type of data set: organism-based. Particulars: in vivo, 168 h, dose 20-30 mg/kg, time 7 day.
Data set [29] can be described thus: Acute toxicity in male BALB/c mouse assessed appearance of augmented alveolar interstitial space at 20 to 30 mg/kg, ip measured after 7 days by H and E staining based analysis. Type of data set: organism-based. Particulars: in vivo, 168 h, dose 20-30 mg/kg, time 7 day.
Data set [30] can be described thus: Acute toxicity in male BALB/c mouse assessed lethal dose administered as ip dose measured for 7 days. The format is organism-based. Particulars: in vivo, time 7 day.
Data set [31] is described as follows: Acute toxicity in male BALB/c mouse assessed appearance of aberrant alveolar morphology at 20 to 30 mg/kg, ip measured after 7 days by H and E staining based analysis. Type of data set: organism-based. Particulars: in vivo, 168 h, dose 20-30 mg/kg, time 7 day.

As usually defined, the MIC is the lowest concentration found to suppress growth. `CO[C@H]1/C=C/O[C@@]2(C)Oc3c(C)c(O)c4c(O)c(c(/C=N/N5CCN(C)CC5)c(O)c4c3C2=O)NC(=O)/C(C)=C\C=C\[C@H](C)[C@H](O)[C@@H](C)[C@@H](O)[C@@H](C)[C@H](OC(C)=O)[C@@H]1C` [RIFAMPIN]: the MIC was 128 µM (≈ 105 µg/mL) with Pseudomonas aeruginosa [1]; 32 µM (≈ 26.3 µg/mL) in the data set with Pseudomonas aeruginosa [2]; 16 µM (≈ 13.2 µg/mL) in the data set on Klebsiella pneumoniae; 1 µM (≈ 0.823 µg/mL) in the data set on Acinetobacter baumannii [3]; 4 µM (≈ 3.29 µg/mL) in the data set with Staphylococcus aureus [5]; 16 µM (≈ 13.2 µg/mL) with Acinetobacter baumannii [6]. Further, the MIC is 16 µM (≈ 13.2 µg/mL) in the data set on Escherichia coli [7]; 16 µM (≈ 13.2 µg/mL) with Pseudomonas aeruginosa [8]; 16 µM (≈ 13.2 µg/mL) with Escherichia coli [9]; 16 µM (≈ 13.2 µg/mL) in the data set with Acinetobacter baumannii [10]; 1 µM (≈ 0.823 µg/mL) with Staphylococcus aureus [11]; 1 µM (≈ 0.823 µg/mL) in the data set with Enterococcus faecalis. For the same molecule, the MIC in the data set on Escherichia coli [15] stood at 8 µM (≈ 6.58 µg/mL); with Staphylococcus aureus [16] it was 128 µM (≈ 105 µg/mL); in the data set on Staphylococcus aureus [17], 1 µM (≈ 0.823 µg/mL); in the data set on Staphylococcus aureus [18], 128 µM (≈ 105 µg/mL); in [19], 1 µM (≈ 0.823 µg/mL); with Bacillus subtilis it was 1 µM (≈ 0.823 µg/mL). Further, the MIC in the data set on Staphylococcus aureus [20] is 1 µM (≈ 0.823 µg/mL). Further, the “fold change (FC)” value turned out to be 512 in the data set on Staphylococcus aureus [4], 64 in the data set on Escherichia coli [12], 8 with Escherichia coli [13] and 8 in the data set with Staphylococcus aureus [14].
As usually defined, the half-life is the time needed for the level to fall by half in the phase considered. In general, LD50 refers to the dose expected to kill half of the subjects tested. For `CC(C)CCCCC(=O)N[C@@H](CCN)C(=O)N[C@H](C(=O)N[C@@H](CCN)C(=O)N[C@H]1CCNC(=O)[C@H]([C@@H](C)O)NC(=O)[C@H](CCN)NC(=O)[C@H](CCN)NC(=O)[C@H](CC(C)C)NC(=O)[C@@H](Cc2ccccc2)NC(=O)[C@H](CCN)NC1=O)[C@@H](C)O.CC[C@H](C)CCCCC(=O)N[C@@H](CCN)C(=O)N[C@H](C(=O)N[C@@H](CCN)C(=O)N[C@H]1CCNC(=O)[C@H]([C@@H](C)O)NC(=O)[C@H](CCN)NC(=O)[C@H](CCN)NC(=O)[C@H](CC(C)C)NC(=O)[C@@H](Cc2ccccc2)NC(=O)[C@H](CCN)NC1=O)[C@@H](C)O`, the Activity result in [21] was “Non-toxic”; in [22], “Non-toxic”; in data set [23], “Toxic”; in [25] it was “Toxic”; in [27] it was “Toxic”; in data set [28] it was “Toxic”. Besides, the Activity result in data set [29] and in data set [31] was “Toxic” in each case. Also, the half-life in data set [24] was 10.5 h. Further, in data set [26], the Retention_time is given as 13.545 min. The molecule further came in with a median lethal dose (LD50) at 168 h in data set [30] of 23.6 mg/kg.
